The source of these data is US10815239B2, “Compounds useful as inhibitors of ATR kinase” (Vertex Pharmaceuticals Incorporated, priority 2013, dated 2020).

Some results are limits rather than exact numbers.

The experiment addresses T1, full-length ATR (Homo sapiens, UniProt Q13535).
T1 construct: Assays are carried out at 25° C. in the presence of 5 nM full-length ATR
The experiment is described as follows: ATR Inhibition Assay (radioactive-phosphate incorporation). It is filed as biochemical. As to conditions: 5 nM full-length ATR, 10 μM ATP, 800 μM target peptide, 25° C.; read-out: Ki (Ki(app)) for inhibition of ATR. The protocol: Compounds can be screened for their ability to inhibit ATR kinase using a radioactive-phosphate incorporation assay. Assays are carried out in a mixture of 50 mM Tris/HCl (pH 7.5), 10 mM MgCl2 and 1 mM DTT. Final substrate concentrations are 10 μM [γ-33P]ATP (3 mCi 33P ATP/mmol ATP, Perkin Elmer) and 800 μM target peptide (ASELPASQPQPFSAKKK).
Assays are carried out at 25° C. in the presence of 5 nM full-length ATR. An assay stock buffer solution is prepared containing all of the reagents listed above, with the exception of ATP and the test compound of interest. 13.5 μL of the stock solution is placed in a 96 well plate followed by addition of 2 μL of DMSO stock containing serial dilutions of the test compound (typically starting from a final concentration of 15 μM with 3-fold serial dilutions) in duplicate (final DMSO concentration 7%). The plate is pre-incubated for 10 minutes at 25° C. and the reaction initiated by addition of 15 μL [γ-33P]ATP (final concentration 10 μM).
The reaction is stopped after 24 hours by the addition of 30 μL 0.1M phosphoric acid containing 2 mM ATP. […]
After removing mean background values for all of the data points, Ki(app) data are calculated from non-linear regression analysis of the initial rate data using the Prism software package (GraphPad Prism version 3.0cx for Macintosh, GraphPad Software, San Diego Calif., USA).

T1 sequence (Q13535 whole entry): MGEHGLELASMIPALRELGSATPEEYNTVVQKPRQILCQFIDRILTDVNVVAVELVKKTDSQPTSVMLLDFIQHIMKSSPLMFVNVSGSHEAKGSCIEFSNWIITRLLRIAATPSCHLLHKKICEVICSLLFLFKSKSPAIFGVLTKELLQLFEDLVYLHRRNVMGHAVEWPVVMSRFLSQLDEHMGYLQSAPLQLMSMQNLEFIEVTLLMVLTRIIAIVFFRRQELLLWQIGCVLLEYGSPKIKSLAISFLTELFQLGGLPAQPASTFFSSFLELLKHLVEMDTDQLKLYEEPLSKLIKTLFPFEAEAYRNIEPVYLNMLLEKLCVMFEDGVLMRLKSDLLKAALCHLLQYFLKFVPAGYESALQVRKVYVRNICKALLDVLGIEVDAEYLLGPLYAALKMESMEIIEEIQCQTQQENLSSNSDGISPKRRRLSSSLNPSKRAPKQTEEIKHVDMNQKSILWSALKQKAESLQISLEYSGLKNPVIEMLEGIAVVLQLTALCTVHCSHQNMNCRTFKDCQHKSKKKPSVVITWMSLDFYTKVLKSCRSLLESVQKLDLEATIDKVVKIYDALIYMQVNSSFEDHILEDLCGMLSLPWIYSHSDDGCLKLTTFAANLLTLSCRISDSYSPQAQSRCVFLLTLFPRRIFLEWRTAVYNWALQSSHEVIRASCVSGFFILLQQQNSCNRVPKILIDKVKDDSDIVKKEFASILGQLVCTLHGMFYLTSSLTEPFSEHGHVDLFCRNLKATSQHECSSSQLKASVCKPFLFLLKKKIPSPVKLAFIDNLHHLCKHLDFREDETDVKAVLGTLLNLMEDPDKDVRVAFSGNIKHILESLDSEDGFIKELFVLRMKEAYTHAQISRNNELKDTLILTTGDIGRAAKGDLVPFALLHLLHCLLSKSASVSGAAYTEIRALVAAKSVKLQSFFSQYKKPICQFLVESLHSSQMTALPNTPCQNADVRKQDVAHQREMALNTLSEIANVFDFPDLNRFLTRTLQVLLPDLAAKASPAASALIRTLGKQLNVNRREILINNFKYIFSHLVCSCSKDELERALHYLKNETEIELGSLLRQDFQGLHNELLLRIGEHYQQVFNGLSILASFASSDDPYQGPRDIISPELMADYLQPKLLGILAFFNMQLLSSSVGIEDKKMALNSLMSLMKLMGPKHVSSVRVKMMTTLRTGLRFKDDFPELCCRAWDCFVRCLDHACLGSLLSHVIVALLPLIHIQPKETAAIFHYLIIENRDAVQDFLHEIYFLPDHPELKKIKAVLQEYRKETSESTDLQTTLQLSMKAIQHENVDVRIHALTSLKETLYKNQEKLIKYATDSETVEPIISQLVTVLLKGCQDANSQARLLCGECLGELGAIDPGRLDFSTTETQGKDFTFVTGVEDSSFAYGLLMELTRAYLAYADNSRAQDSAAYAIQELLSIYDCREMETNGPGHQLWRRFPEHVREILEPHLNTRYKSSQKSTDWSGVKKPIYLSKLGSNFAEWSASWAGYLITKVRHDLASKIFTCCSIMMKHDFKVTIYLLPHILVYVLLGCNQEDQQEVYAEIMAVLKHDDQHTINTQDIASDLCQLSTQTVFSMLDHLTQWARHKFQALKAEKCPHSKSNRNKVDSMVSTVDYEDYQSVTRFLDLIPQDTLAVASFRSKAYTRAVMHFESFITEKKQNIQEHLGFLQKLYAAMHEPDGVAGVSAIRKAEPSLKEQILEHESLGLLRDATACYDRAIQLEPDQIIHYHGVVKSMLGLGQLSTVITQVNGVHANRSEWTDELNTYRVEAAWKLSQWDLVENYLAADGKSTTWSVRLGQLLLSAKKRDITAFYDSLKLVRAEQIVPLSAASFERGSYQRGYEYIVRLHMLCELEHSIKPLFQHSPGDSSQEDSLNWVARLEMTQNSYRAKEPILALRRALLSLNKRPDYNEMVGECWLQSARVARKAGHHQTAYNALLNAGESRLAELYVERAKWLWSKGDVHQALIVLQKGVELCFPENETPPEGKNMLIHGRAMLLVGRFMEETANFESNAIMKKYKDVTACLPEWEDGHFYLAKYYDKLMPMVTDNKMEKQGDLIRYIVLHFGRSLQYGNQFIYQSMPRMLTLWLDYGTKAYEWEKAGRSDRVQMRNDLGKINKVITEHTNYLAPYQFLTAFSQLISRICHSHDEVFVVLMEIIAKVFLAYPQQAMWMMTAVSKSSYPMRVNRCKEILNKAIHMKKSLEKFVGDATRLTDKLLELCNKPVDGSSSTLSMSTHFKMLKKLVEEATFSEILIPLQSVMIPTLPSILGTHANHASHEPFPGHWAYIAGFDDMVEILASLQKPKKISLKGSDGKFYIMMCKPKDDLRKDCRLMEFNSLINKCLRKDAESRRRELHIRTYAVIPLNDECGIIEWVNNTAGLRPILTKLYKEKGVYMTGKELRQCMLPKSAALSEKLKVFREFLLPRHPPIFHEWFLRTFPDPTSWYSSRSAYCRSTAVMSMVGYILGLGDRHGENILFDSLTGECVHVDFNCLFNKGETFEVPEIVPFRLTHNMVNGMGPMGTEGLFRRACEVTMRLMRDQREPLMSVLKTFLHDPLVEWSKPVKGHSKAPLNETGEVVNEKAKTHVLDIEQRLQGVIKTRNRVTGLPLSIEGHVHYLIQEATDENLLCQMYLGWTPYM

Regarding `Nc1nn2cc(F)cnc2c1C(=O)Nc1cncc(F)c1N1CCC(C(=O)N2CCN(C3COC3)CC2)CC1` [Compound I-1, 2-amino-6-fluoro-N-[5-fluoro-4-[4-[4-(oxetan-3-yl)piperazine-1-carbonyl]-1-piperidyl]-3-pyridyl]pyrazolo[1,5-a]pyrimidine-3-carboxamide], the Ki was less than 1000 nM.
On to `[2H]C1([2H])N(C(=O)C2CCN(c3c(F)cncc3NC(=O)c3c(N)nn4cc(F)cnc34)CC2)C([2H])([2H])C([2H])([2H])N(C2COC2)C1([2H])[2H]` [Compound I-3, 2-amino-6-fluoro-N-(5-fluoro-4-(4-(2,2,3,3,5,5,6,6-octadeutero-4-(oxetan-3-yl)piperazine-1-carbonyl)piperidin-1-yl)-3-pyridyl)pyrazolo[1,5-a]pyrimidine-3-carboxamide], for which the Ki was less than 1000 nM.
